# Test results from patent publication US20230365563A1, “QUINAZOLINE COMPOUND AND APPLICATION THEREOF” (SHANGHAI PHARMACEUTICALS HOLDING CO., LTD., priority 2020, published 2023).
# Where a name gives a salt, the structure may show the parent alone.
# Experiments:
# [1] = target: T1, KRAS_G12D and cRAF (Homo sapiens, UniProt P01116, G12D); assay: Inhibition of KRAS_G12D/cRAF binding (Cisbio binding kit, 665/615 ratio), Effect Embodiment B; details: read-out: GTP-KRAS-G12D:CRAF IC50
# T1 construct: purchased
# Outline: (§1)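 Compounds are tested over eleven threefold dilution steps in duplicate, with final DMSO at 1%.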
# [2] = target: T2, KRAS-G12D and SOS1 (Homo sapiens, UniProt P01116, G12D); assay: Inhibition of KRAS-G12D/SOS1 binding (Cisbio binding kit, 665/615 ratio), Effect Embodiment A; details: read-out: GTP-KRAS-G12D:SOS1 IC50
# T2 construct: purchased
# Outline: as §1
# [3] = target: T3, KRAS_WT and SOS1 (Homo sapiens, UniProt P01116); assay: Inhibition of KRAS_WT/SOS1 binding (Cisbio binding kit, 665/615 ratio), Effect Embodiment C; details: read-out: GTP-KRAS-WT:SOS1 IC50
# T3 construct: purchased
# Outline: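 Compounds tested as 3-fold, 11-point dilutions in duplicate at 1% DMSO final against the KRAS_WT/SOS1 binding system. IC50 derived by nonlinear regression fit.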
# T2 sequence (P01116 1-188 isoform P01116-2 G12D): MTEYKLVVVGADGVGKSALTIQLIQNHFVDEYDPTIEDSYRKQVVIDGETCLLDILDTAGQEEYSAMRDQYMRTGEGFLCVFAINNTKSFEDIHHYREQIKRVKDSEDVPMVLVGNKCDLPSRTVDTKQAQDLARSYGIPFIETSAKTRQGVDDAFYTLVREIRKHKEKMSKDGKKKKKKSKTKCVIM
# T1 sequence (P01116 1-188 isoform P01116-2 G12D): as above
# T3 sequence (P01116 1-188 isoform P01116-2): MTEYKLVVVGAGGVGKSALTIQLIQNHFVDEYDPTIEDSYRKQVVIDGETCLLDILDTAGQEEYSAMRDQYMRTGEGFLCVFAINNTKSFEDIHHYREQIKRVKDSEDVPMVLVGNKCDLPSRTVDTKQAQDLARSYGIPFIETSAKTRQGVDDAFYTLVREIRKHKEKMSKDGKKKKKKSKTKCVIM
smiles,measurement,setting,value
"CN(CCCOc1nc(N2CC3CCC(C2)N3)c2cc(Cl)c(-c3cc(O)cc4ccccc34)c(F)c2n1)CCC(O)CO (single isomer, unassigned) [Compound 148, 4-((3-((S or R)-4-((1R,5S)-3,8-diazabicyclo[3.2.1]octan-3-yl)-6-chloro-8-fluoro-7-(3-hydroxynaphthalen-1-yl)quinazolin-2-yl)oxy)propyl)(methyl)amino)butan-1,2-diol ditrifluoroacetate]",IC50,[1],122 nM
same,IC50,[2],28.6 nM
same,IC50,[3],2970 nM
"Cc1cc2c(N3CC4CCC(C3)N4)nc(OCCCN(C)C)nc2c(F)c1-c1cc(O)cc2ccccc12 (single isomer, unassigned) [Compound 149a, 4-((R or S)-4-((1R,5S)-3,8-diazabicyclo[3.2.1]octan-3-yl)-2-(3-(dimethylamino)propoxy)-8-fluoro-6-methylquinazolin-7-yl)naphthalen-2-ol hydrochloride]",IC50,[1],96.9 nM
same,IC50,[2],39.6 nM
same,IC50,[3],854 nM
"N=C(N)NCCCOc1nc(N2CC3CCC(C2)N3)c2cc(Cl)c(-c3cc(O)cc4ccccc34)c(F)c2n1 (single isomer, unassigned) [Compound 150, 1-(3-((4-((1R,5S)-3,8-diazabicyclo[3.2.1]octan-3-yl)-6-chloro-8-fluoro-7-((S or R)-3-hydroxynaphthalen-1-yl)quinazolin-2-yl)oxy)propyl)guanidine diformate]",IC50,[1],114 nM
same,IC50,[2],39.2 nM
same,IC50,[3],2040 nM
"CN1CCC[C@H]1COc1nc(N2CCN(C(=O)CN)[C@@H](CC#N)C2)c2cc(Cl)c(-c3cc(O)cc4ccccc34)c(F)c2n1 (single isomer, unassigned) [Compound 155, 2-((S)-4-((S or R)-6-chloro-8-fluoro-7-(3-hydroxynaphthalen-1-yl)-2-((S)-1-methylpyrrolidine-2-yl)methoxy)quinazolin-4-yl)-1-glycylpiperazin-2-yl)acetonitrile ditrifluoroacetate]",IC50,[1],312 nM
same,IC50,[2],78.8 nM
same,IC50,[3],243 nM
"CN1CCC[C@H]1COc1nc(N2CC3CCC(C2)N3)c2cc(F)c(-c3cc(O)cc4ccccc34)c(F)c2n1 (single isomer, unassigned) [Compound 160a, (R or S) 4-(4-((1R,5S)-3,8-diazabicyclo[3.2.1]octan-3-yl)-6,8-difluoro-2-((S)-1-methylpyrrolidin-2-yl)methoxy)quinazolin-7-yl)naphthalen-2-ol dihydrochloride]",IC50,[1],15.1 nM
same,IC50,[2],19.4 nM
same,IC50,[3],152 nM
"Oc1cc(-c2c(Cl)cc3c(N4CC5CCC(C4)N5)nc(OC[C@@H]4CCCN4C4CC4)nc3c2F)c2ccccc2c1 (single isomer, unassigned) [Compound 163, 4-((R or S)-4-((1R,5S)-3,8-diazabicyclo[3.2.1]octan-3-yl)-6-chloro-2-((S)-1-cyclopropylpyrrolidin-2-yl)methoxy)-8-fluoroquinazolin-7-yl)naphthalen-2-ol dihydrochloride]",IC50,[1],49.8 nM
same,IC50,[2],18.6 nM
same,IC50,[3],787 nM
"C[C@@H]1COC[C@@H](C)N1CCCOc1nc(N2C[C@H]3CC[C@@H](C2)N3)c2cc(Cl)c(-c3cc(O)cc4ccccc34)c(F)c2n1 (single isomer, unassigned) [Compound 164, (R or S)-4-(4-((1R,5S)-3,8-diazabicyclo[3.2.1]octan-3-yl)-6-chloro-2-(3-((3R,5R)-3,5-dimethylmorpholinyl)propoxy)-8-fluoroquinazolin-7-yl)naphthalen-2-ol dihydrochloride]",IC50,[1],115 nM
same,IC50,[2],43.9 nM
same,IC50,[3],2530 nM
"Oc1cc(-c2c(Cl)cc3c(N4C[C@H]5CC[C@@H](C4)N5)nc(OCCCN4C[C@@H]5C[C@H]4CO5)nc3c2F)c2ccccc2c1 (single isomer, unassigned) [Compound 165, (R or S)-4-(2-(3-((1S,4S)-2-oxa-5-azabicyclo[2.2.1]heptan-5-yl)propoxy)-4-((1R,5S)-3,8-diazabicyclo[3.2.1]octan-3-yl)-6-chloro-8-fluoroquinazolin-7-yl)naphthalen-2-ol dihydrochloride]",IC50,[1],85.4 nM
same,IC50,[2],27.8 nM
same,IC50,[3],1880 nM
"CO[C@@H]1C[C@@H](COc2nc(N3CC4CCC(C3)N4)c3cc(Cl)c(-c4cc(O)cc5ccccc45)c(F)c3n2)N(C)C1 (single isomer, unassigned) [Compound 166, (R or S)-4-(4-((1R,5S)-3,8-diazabicyclo[3.2.1]octan-3-yl)-6-chloro-8-fluoro-2-((2S,4R)-4-methoxy-1-methylpyrrolidin-2-yl)methoxy)quinazolin-7-yl)naphthalenol dihydrochloride]",IC50,[1],31.9 nM
same,IC50,[2],25 nM
same,IC50,[3],553 nM
"CN1CC2(CC2)C[C@H]1COc1nc(N2C[C@H]3CC[C@@H](C2)N3)c2cc(Cl)c(-c3cc(O)cc4ccccc34)c(F)c2n1 (single isomer, unassigned) [Compound 167, (R or S)-4-(4-((1R,5S)-3,8-diazabicyclo[3.2.1]octan-3-yl)-6-chloro-8-fluoro-2-(((S)-5-methyl-5-azaspiro[2.4]heptan-6-yl)methoxy)quinazolin-7-yl)naphthalen-2-ol dihydrochloride]",IC50,[1],19.5 nM
same,IC50,[2],17.9 nM
same,IC50,[3],248 nM
"CN1C[C@H](F)C[C@H]1COc1nc(N2CC3CCC(C2)N3)c2cc(Cl)c(-c3cc(O)cc4ccccc34)c(F)c2n1 (single isomer, unassigned) [Compound 168, (R or S)-4-(4-((1R,5S)-3,8-diazabicyclo[3.2.1]octan-3-yl)-6-chloro-8-fluoro-2-((2S,4R)-4-fluoro-1-methylpyrrolidin-2-yl)methoxy)quinazolin-7-yl)naphthalenol dihydrochloride]",IC50,[1],22.4 nM
same,IC50,[2],18.7 nM
same,IC50,[3],458 nM
"Oc1cc(-c2c(Cl)cc3c(N4C[C@H]5CC[C@@H](C4)N5)nc(OCCCN4C[C@H]5C[C@@H]4CO5)nc3c2F)c2ccccc2c1 (single isomer, unassigned) [Compound 169, (R or S)-4-(2-(3-((1R,4R)-2-oxa-5-azabicyclo[2.2.1]heptan-5-yl)propoxy)-4-((1R,5S)-3,8-diazabicyclo[3.2.1]octan-3-yl)-6-chloro-8-fluoroquinazolin-7-yl)naphthalen-2-ol dihydrochloride]",IC50,[1],71.3 nM
same,IC50,[2],39.2 nM
same,IC50,[3],1870 nM
"CN1CCC[C@H]1COc1nc(N2CC3CCC(C2)N3)c2cc(Cl)c(-c3cc(O)cc4ccccc34)c(F)c2n1 (single isomer, unassigned) [Compound 170, (R or S)-4-(4-((1R,5S)-3,8-diazabicyclo[3.2.1]octan-3-yl)-6-chloro-8-fluoro-2-((S)-1-methylpyrrolidin-2-yl)methoxy)quinazolin-7-yl)naphthalen-2-ol dihydrochloride]",IC50,[1],24.4 nM
same,IC50,[2],12.8 nM
same,IC50,[3],270 nM
"C[C@@H]1C[C@@H](COc2nc(N3CC4CCC(C3)N4)c3cc(Cl)c(-c4cc(O)cc5ccccc45)c(F)c3n2)N(C)C1 (single isomer, unassigned) [Compound 171, (R or S)-4-(4-((1R,5S)-3,8-diazabicyclo[3.2.1]octan-3-yl)-6-chloro-2-((2S,4R)-1.4-dimethylpyrrolidin-2-yl)methoxy)-8-fluoroquinazolin-7-yl)naphthalen-2-ol dihydrochloride]",IC50,[1],60.4 nM
same,IC50,[2],24.8 nM
same,IC50,[3],395 nM
